The text below walks through data of US20170190671A1, “BIS(ARYL)CATECHOL DERIVATIVES AS HERBICIDES” (E I DU PONT DE NEMOURS AND COMPANY, priority 2014, published 2017).

In the experiment the test system is dayflower (Virginia (VA) dayflower, Commelina virginica). In words: Test F preemergence. It counts as in vivo. The note with it: 21 days, scale 0 to 100. The text has this: Seeds of plant species selected from bermudagrass (Cynodon dactylon), Surinam grass (Brachiaria decumbens), large (Lg) crabgrass (Digitaria sanguinalis), crabgrass, naked (naked crabgrass, Digitaria nuda), foxtail, green (green foxtail, Setaria viridis), johnsongrass (Sorghum halepense), kochia (Kochia scoparia), morningglory (pitted morningglory, Ipomoea lacunosa), nutsedge, purple (purple nutsedge, Cyperus rotundus), ragweed (common ragweed, Ambrosia elatior), mustard, black (black mustard, Brassica nigra), guineagrass (Panicum maximum), dallisgrass (Paspalum dilatatum), barnyardgrass (Echinochloa crus-galli), sandbur (southern sandbur, Cenchrus echinatus), sowthistle (common sowthistle, Sonchus oleraceous), Italian ryegrass (Lolium multiflorum), signalgrass (broadleaf signalgrass, Brachiaria platyphylla), dayflower (Virginia (VA) dayflower, Commelina virginica), bluegrass (annual bluegrass, Poa annua), quackgrass (Elytrigia repens), mallow (common mallow, Malva sylvestris), buckwheat, wild (wild buckwheat, Polygonum convolvulus), leafy spurge (Euphorbia esula), chickweed (common chickweed, Stellaria media), wild poinsettia (Euphorbia heterophylla), and pigweed (Amaranthus retroflexus) were planted into a blend of loam soil and sand and treated preemergence with test a chemical formulated in a non-phytotoxic solvent mixture which included a surfactant.
Treated plants and controls were maintained in a greenhouse for 21 days, after which time all species were compared to controls and visually evaluated. Plant response ratings, summarized in Table F, are based on a scale of 0 to 100 where 0 is no effect and 100 is complete control. A dash (-) response means no test result.

As for `N#Cc1cccc(Oc2ncc(Cl)cn2)c1Oc1ncc(Cl)cn1` [Compound 3, 2,3-bis[(5-chloro-2-pyrimidinyl)oxy]benzonitrile], the “Plant response rating, Dayflower, VA” value reads like this: (62 g ai/ha) 98; (125 g ai/ha) 100; (250 g ai/ha) 100.
